# Paper PMC6973020, “Quinoline‐Conjugated Ruthenacarboranes: Toward Hybrid Drugs with a Dual Mode of Action” (Chemmedchem, 2019)
# Where “and” joins values, the source holds several entries; their conditions need not be identical. Equal entries are not always repeated.
# How the values were obtained:
# [1] = test system: Human fibroblast cell line MRC‐5; assay: Crystal violet (CV) cell viability assay, MRC‐5; format: cell-based; settings: 72 h
# Text: (§1) Thus, care must be taken when comparing their biological activities with those of our previous studies, even with the same cell line, because the covalent vs. non‐covalent combination of drugs might imply different mechanisms of action in the cell.44 Here, we studied the in vitro activity of ruthenacarborane 3, i. e. free acid, and its 8‐hydroxyquinolyl (4) and 4‐{(7‐chloroquinolin‐4‐yl)oxy}butanol‐1‐yl (5) esters, against a panel of cancer cell lines (B16 mouse melanoma, A375 human skin melanoma, MCF‐7 human breast adenocarcinoma, LN229 human glioblastoma, U251 human glioma). Human fibroblast cell line MRC‐5, murine microglial cell line BV‐2 as well as peritoneal exudate cells (Mph), were chosen as models for non‐malignant cells. […] On the other side, we wanted to assess the reproducibility of the viability data, under either controlled (with BSA) or uncontrolled (without BSA) conditions, in two sets of independent assays. […] Cells were exposed to 3–5 for 72 h, after which cell viability was determined via 3‐(4,5‐dimethylthiazol‐2‐yl)‐2,5‐diphenyltetrazolium bromide (MTT) and crystal violet (CV) assays, in parallel (Table 2). Cisplatin was also tested as reference.
# (§2) Preparation of drug solutions. […] Stock solution of cisplatin was prepared in DMF (10 mM) immediately before use. A stock solution of BSA in PBS was prepared at 1.28 mM concentration, and stored at 4 °C in the dark. […] Alternatively, 3 or 4 (DMSO stock solution) were added to the BSA solution in PBS, always with a 10 : 1 molar ratio of BSA to ruthenacarborane. […]
# (§3) Colorimetric assays for cellular viability. […] The absorbance was measured with an automated microplate reader at λmax 540 nm, with the reference λmax 670 nm. Untreated cells or cells treated only with BSA (control) were also measured, as reference for BSA‐free and BSA‐containing drug formulations, respectively. […] Cell viability is expressed as percentage (%) relative to control (untreated cultures).58 Experiments were run in three independent replicates. […]
# [2] = test system: murine microglial cell line BV‐2; assay: Crystal violet (CV) cell viability assay, BV‐2; format: cell-based, mouse; settings: 72 h
# Text: as §1, §2, §3
# [3] = Nanoparticle Tracking Analysis (NTA) in PBS/DMSO, with and without BSA; format: physicochemical; settings: PBS, without BSA, 20 μM, 25 °C
# Method: Nanoparticle Tracking Analysis (NTA). 3 and 4 were analyzed via NTA to study the modulation of self‐assembly behavior in PBS/DMSO mixture (pH 7.4), with and without BSA, in an analogous way as described previously.9 Samples of 3 and 4 in PBS/DMSO were prepared as described above for UV‐vis measurements. The solutions were measured 30 min after preparation. Samples of BSA−3 and BSA−4 were prepared with two different BSA:ruthenacarborane ratios, namely 10 : 1 and 1 : 1. Stock solutions of BSA in PBS ([BSA]PBS=1.128 mM) were diluted to final concentrations of 200 or 20 μM with PBS (Vfin=5 mL), then an aliquot of the stock solution of 3 or 4 was added, so that the final concentration of metallacarborane was 20 μM. Content of DMSO was adjusted to 1 vol % (considering the amount of DMSO from the stock solutions) before addition of the ruthenacarborane, in all samples. The solutions of BSA−ruthenacarborane were measured 3.5–6 h after preparation. BSA alone in PBS/DMSO was also measured, as blank, using the same capture and processing parameters as for the respective BSA−metallacarborane samples, for direct comparison. All NTA measurements were performed at 25±0.1 °C. Each sample was measured in five independent captures. The time of each capture was set to 60 s.
# [4] = test system: B16 mouse melanoma; assay: Crystal violet (CV) cell viability assay, B16; format: cell-based; settings: 72 h
# Text: as §1
# Preparation of drug solutions. […] Stock solution of cisplatin was prepared in DMF (10 mM) immediately before use. A stock solution of BSA in PBS was prepared at 1.28 mM concentration, and stored at 4 °C in the dark. […] Alternatively, 3 or 4 (DMSO stock solution) were added to the BSA solution in PBS, always with a 10 : 1 molar ratio of BSA to ruthenacarborane. The BSA−ruthenacarborane solutions were incubated 0.5–1 h at room temperature, then diluted with cell culture medium to the desired final concentrations. Final concentrations of 3 and 4 were the same as for the BSA‐free formulation. Final DMSO was 0.02–0.5 vol %.
# Colorimetric assays for cellular viability. […] For counting the number of attached (viable) cells, cells were fixed with 4 % (w/v) paraformaldehyde for 10 min at room temperature, and subsequently stained for 15 min with […] crystal violet (CV) solution. Cells were then washed with tap water, dried in air, and the CV dye was dissolved in 33 % (w/v) acetic acid solution. For the detection of mitochondrial respiration, cells were cultivated in MTT staining solution (0.5 mg mL^−1) for approximately 1 h. The dye was then discarded, and the formed formazan (purple) was dissolved in DMSO. The absorbance was measured with an automated microplate reader at λmax 540 nm, with the reference λmax 670 nm. Untreated cells or cells treated only with BSA (control) were also measured, as reference for BSA‐free and BSA‐containing drug formulations, respectively. […] Cell viability is expressed as percentage (%) relative to control (untreated cultures).58 Experiments were run in three independent replicates. […]
# [5] = test system: primary non‐malignant mouse macrophages (Mph); assay: Crystal violet (CV) cell viability assay, peritoneal macrophages (Mph); format: cell-based; settings: 72 h
# Text: as §1, §2, §3
Substance,IC50 [1],IC50 [2],concentration of self‐assemblies [3],IC50 [4],IC50 [5]
"closo ‐[3‐(η^6‐p‐Cymene)‐1‐(quinolin‐8‐yl‐acetate)‐3,1,2‐RuC2B9H10] [Compound 4]",4.9 ± 0.1 µM,9.2 ± 0.1 µM,10^6–10^7 particles mL^−1,24.5 ± 2.1 µM,94 ± 7.7 µM
"closo‐ [Compound 3, closo‐ [3‐(η^6‐p‐Cymene)‐1‐(CH2COOH)‐3,1,2‐RuC2B9H10]]",58.5 ± 0.3 µM,68.2 ± 1.3 µM,10^6–10^7 particles mL^−1,21.1 ± 2 µM,49 µM and 49.1 µM
